From US20040171062A1, “Methods for the design of molecular scaffolds and ligands” (Plexxikon, Inc., priority 2002, published 2004)
pIC50, pKd: −log10 of the molar value. Blank lines part the entries; values can stand above or below the molecule they belong to.

Columns and labels:
Type in all cases: biochemical
[1] = target: T1, Pyk2 kinase domain residues 419 to 691 (Homo sapiens, UniProt Q14289); test: Pyk2 kinase domain AlphaScreen activity and inhibition by ATP analogs
T1 construct: PYK2 kinase domain I420-M691; hexa-histidine (thrombin-cleavable, pET15S; leaves GSHM before I420) (N, cleaved yes); made in house; host or cells: E. coli BL21 (DE3) pLysS
T1 sequence (Q14289 420-691): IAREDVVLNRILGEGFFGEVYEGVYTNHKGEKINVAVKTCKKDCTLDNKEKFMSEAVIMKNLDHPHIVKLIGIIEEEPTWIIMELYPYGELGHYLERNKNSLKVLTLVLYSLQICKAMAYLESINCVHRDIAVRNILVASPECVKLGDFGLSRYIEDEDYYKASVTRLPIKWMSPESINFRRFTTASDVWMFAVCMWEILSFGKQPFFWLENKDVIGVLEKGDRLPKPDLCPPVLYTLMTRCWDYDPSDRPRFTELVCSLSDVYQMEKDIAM

[2] = target: T1, Pyk2 kinase domain residues 419 to 691; test: as above; conditions: Pyk2 at 8 ng/well, ATP at 10 uM; for pIC50: fit y = ((Vmax*x^n)/(K^n + x^n)) + Y2; for effect on PYK2: in the concentration tested
Method: Inhibition by ATP analogs was tested with Pyk2 at 8 ng/well and ATP at 10 uM.

Pyk2 = target: T2, Pyk2 (Homo sapiens, UniProt Q14289); test: Pyk-2 inhibitory activity (kinase ELISA, poly(Glu:Tyr))
T2 construct: the Pyk2 was the kinase domain-(His)6 fusion; (His)6 (C); made in house; host or cells: E. coli BL21
T2 sequence (Q14289 425-683 limits assumed): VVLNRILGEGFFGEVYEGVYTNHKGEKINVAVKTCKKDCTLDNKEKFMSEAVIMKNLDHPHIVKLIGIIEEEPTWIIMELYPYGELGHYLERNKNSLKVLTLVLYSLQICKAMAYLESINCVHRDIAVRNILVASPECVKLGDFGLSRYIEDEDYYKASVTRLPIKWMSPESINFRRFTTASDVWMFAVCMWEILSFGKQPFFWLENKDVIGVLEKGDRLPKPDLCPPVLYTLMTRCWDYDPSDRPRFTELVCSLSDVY
Method: Csk (and Pyk2 in a separate assay) were mixed with poly(Glu:Tyr) and coated on an ELISA plate in kinase buffer. Test compounds were added to each well at a concentration of about 200 uM. ATP was added to a final concentration of 2 uM. After 1 hour of incubation at 37 C, phospho-Tyr was detected with ELISA solution. Color development of TMB was measured at 650 nm. The Csk was the (His)6-kinase domain fusion, and the Pyk2 was the kinase domain-(His)6 fusion, both produced in BL21 E. coli. The kinase buffer was 50 mM HEPES, pH 7.2 with 100 uM of manganese. The ELISA solution was 1:1000 at 5% milk.

PIM-1 = target: T3, PIM-1 (Homo sapiens, UniProt P11309); test: PIM-1 kinase activity assay (MBP substrate, 33P-ATP FlashPlate)
T3 construct: expressing PIM-1 kinase domain (29-313) was suspended; made in house; host or cells: E. coli BL21(DE3)pLysS
T3 sequence (P11309 29-313): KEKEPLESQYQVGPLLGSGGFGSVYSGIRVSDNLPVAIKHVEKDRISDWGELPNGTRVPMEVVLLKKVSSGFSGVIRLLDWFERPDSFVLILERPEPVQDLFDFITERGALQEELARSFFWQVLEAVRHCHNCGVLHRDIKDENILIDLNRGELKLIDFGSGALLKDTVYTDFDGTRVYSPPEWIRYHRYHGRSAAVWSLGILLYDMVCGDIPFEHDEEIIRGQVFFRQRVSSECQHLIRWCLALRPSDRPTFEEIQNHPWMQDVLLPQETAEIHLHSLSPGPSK
Method: Inhibitory or exhitory activity of compounds binding to PIM-1 was determined using a kinase assay.
An assay for kinase activity that can be used for PIM kinases, e.g., PIM-1, can be performed according to the following procedure using purified kinase using myelin basic protein (MBP) as substrate.
Coat scintillation plate suitable for radioactivity counting (e.g., FlashPlate from Perkin-Elmer, such as the SMP200(basic)) with kinase+MBP mix (final 100 ng+300 ng/well) at 90-μL/well in kinase buffer. Add compounds at 1 μL/well from 10 mM stock in DMSO. Positive control wells are added with 1 μL of DMSO. Negative control wells are added with 2 μL of EDTA stock solution. ATP solution (10 μL) is added to each well to provide a final concentration of cold ATP is 2 μM, and 50 nCi ATPγ[^33P]. The plate is shaken briefly, and a count is taken to initiate count (IC) using an apparatus adapted for counting with the plate selected, e.g., Perkin-Elmer Trilux. Store the plate at 37° C. for 4 hrs, then count again to provide final count (FC).
Net 33P incorporation (NI) is calculated as: NI=FC−IC.
The effect of the present of a test compound can then be calculated as the percent of the positive control as: % PC=[(NI−NC)/(PC−NC)]×100, where NC is the net incorporation for the negative control, and PC is the net incorporation for the positive control. […]

Compound: Nc1ncnc2c1ncn2[C@@H]1O[C@H](COP(=O)(O)OP(=O)(O)OP(=O)(O)O)[C@@H](O)[C@H]1O [ATP]
K (Pyk2 activity) ([1]; Pyk2 8 ng/well, 384-well plate, fit y = (Vmax*x)/(K + x)): 7.37 µM | pKd ([1]; Pyk2 at 8 ng/well in 384-well plate, AlphaScreen): 5.13

Compound: Nc1ncnc2c1ncn2C1OC(COP(=O)(O)OP(=O)(O)NP(=O)(O)O)C(O)C1O (centres unmarked) [AMPPNP, 5′-adenylylimidodiphosphate]
pIC50 [2]: 4.74

Compound: Nc1ncnc2c1ncn2[C@@H]1O[C@H](COP(=O)(O)OP(=O)(O)O)[C@@H](O)[C@H]1O [ADT]
affinity with Pyk2 [2]: 14 µM | pIC50 [2]: 4.83

Compound: Nc1ncnc2c1ncn2[C@@H]1O[C@H](COP(=O)(O)OP(=O)(O)CP(=O)(O)O)[C@@H](O)[C@H]1O [AMPPCP]
pIC50 [2]: 2.11 | effect on PYK2 [2]: little effect

More lines, now with the values ahead:

affinity with Pyk2 [2]: 14 µM | pIC50 [2]: 4.87
Compound: Nc1ncnc2c1ncn2[C@@H]1O[C@H](COP(=O)(O)OP(=O)(O)OP(O)(O)=S)[C@@H](O)[C@H]1O [ATP-g-S]

pIC50 (Pyk2): < 3.70 | inhibition at 200 µM (PIM-1; at 200 μM concentration): 8% | pIC50 (PIM-1; read-out: IC50, inhibitory activity against PIM-1): < 3.70
Compound: c1cnc2[nH]ccc2c1 [Formula III, R1=R2=R3=R4=R5=H]

pIC50 [2]: 4.10
Compound: Nc1ncnc2c1ncn2[C@@H]1O[C@H](COP(=O)(O)O)[C@@H](O)[C@H]1O [AMP]

effect on PYK2 [2]: little effect
Compound: Nc1ncnc2c1ncn2[C@@H]1O[C@H](CO)[C@@H](O)[C@H]1O [Adenosine]
